Literature values as cited in article PMC5028780, “Receptor and transporter binding and activity profiles of albiflorin extracted from Radix paeoniae Alba” (Scientific Reports, 2016).

Columns and labels:
5-HT2C sites = test system: 5-HT2C sites; parameters: method as in PMID 11454919, PMID 10621762; conditions: antagonist properties; cited from earlier work
h5-HT2C receptors = conditions: reference not given; cited from earlier work

Q: For `CN(C)CCCC1(c2ccc(F)cc2)OCc2cc(C#N)ccc21` (stereo not drawn) [citalopram], which “affinity at 5-HT2C sites” value (5-HT2C sites) is on record?
A: modest affinities

Q: For `CCOc1ccccc1OC(c1ccccc1)C1CNCCO1` (stereo not drawn) [Reboxetine], which “affinity for h5-HT2C receptors” value (h5-HT2C receptors) is on record?
A: mild affinity

Q: Which “affinity at 5-HT2C sites” value (5-HT2C sites) does the source give for `CN(C)CCCN1c2ccccc2CCc2ccc(Cl)cc21` [clomipramine] here?
A: modest affinities
